Laboratory results: US5698528A, “Substance IT-62-B and medicinal composition containing the same” (Taiho Pharmaceutical Co., Ltd., priority 1994, dated 1997)
≈ marks a conversion by molar mass, not a printed value.

Assays:
[1] = system: KB cell line derived from human nasopharyngeal carcinoma; experiment: 50% inhibitory concentration against KB cell line (growth inhibition, trypan blue viable count); type: cell-based; conditions: 72 h, incubation for 3 days, 37° C., trypan blue dye exclusion
Description: A. Determination of 50% inhibitory concentration against the established culture cell line derived from human nasopharyngeal carcinoma:
A 50% inhibitory concentration (IC50) of the compound according to the present invention against an established culture cell line (KB cell line) derived from human nasopharyngeal carcinoma was determined. More specifically, the KB cell line (2×10^3 cells/ml of medium) was cultured in an Eagle's minimal essential medium supplemented with a 10% calf serum, and 3 ml of this culture medium was incubated in a plastic Petri dish to incubate it at 37° C. in a CO2 -incubator (5% CO2). After overnight incubation, the compound according to the present invention was added with the compound diluted from a concentration of 1 μg/ml to a concentration of 1×10^-6 μg/ml by 10-fold dilution.

Bacillus cereus IFO 3001 = experiment: Antibacterial MIC (agar dilution); type: cell-based; conditions: IFO3001, Muller-Hinton agar, 37° C., 18 hours, 10^6 cells/ml
Description: (§1) (1) Determination of antibacterial activities of the substance IT-62-B:
(§2) Minimum inhibitory concentrations (MICs) of the compound according to the present invention against various bacteria were determined in accordance with the MIC measurement method of Japan Society of Chemotherapy (see journal of Chemotherapy, Vol. 29, No. 1, pp. 76-79, 1981). More specifically, Muller-Hinton agar media (product of Difco Co.) containing the compound according to the present invention at various concentrations were used. The test organisms diluted to 10^6 cells/ml, respectively, were inoculated said test organisms having been grown on the same medium as described above.

[2] = system: Escherichia coli IAM 1268; experiment: Antibacterial MIC (agar dilution); type: cell-based; conditions: IAM1268, Muller-Hinton agar, 37° C., 18 hours, 10^6 cells/ml
Description: as §1, §2

[3] = system: Staphylococcus aureus Smith; experiment: Antibacterial MIC (agar dilution); type: cell-based; conditions: Muller-Hinton agar, 37° C., 18 hours, 10^6 cells/ml
Description: as §1, §2

[4] = system: Serratia marcescens IFO 12648; experiment: Antibacterial MIC (agar dilution); type: cell-based; conditions: IFO12648, Muller-Hinton agar, 37° C., 18 hours, 10^6 cells/ml
Description: as §1, §2

Escherichia coli NIHJ = experiment: Antibacterial MIC (agar dilution); type: cell-based; conditions: Muller-Hinton agar, 37° C., 18 hours, 10^6 cells/ml
Description: as §1, §2

[5] = system: Proteus vulgaris IID OX-19; experiment: Antibacterial MIC (agar dilution); type: cell-based; conditions: IIDOX19, Muller-Hinton agar, 37° C., 18 hours, 10^6 cells/ml
Description: as §1, §2

[6] = system: Enterococcus faecalis IFO 12968; experiment: Antibacterial MIC (agar dilution); type: cell-based; conditions: IFO12968, Muller-Hinton agar, 37° C., 18 hours, 10^6 cells/ml
Description: as §1, §2

[7] = system: Klebsiella pneumoniae ATCC 29665; experiment: Antibacterial MIC (agar dilution); type: cell-based; conditions: ATCC29665, Muller-Hinton agar, 37° C., 18 hours, 10^6 cells/ml
Description: as §1, §2

[8] = system: Micrococcus luteus ATCC 10240; experiment: Antibacterial MIC (agar dilution); type: cell-based; conditions: ATCC10240, Muller-Hinton agar, 37° C., 18 hours, 10^6 cells/ml
Description: as §1, §2

[9] = system: Pseudomonas aeruginosa NCTC 10490; experiment: Antibacterial MIC (agar dilution); type: cell-based; conditions: NCTC10490, Muller-Hinton agar, 37° C., 18 hours, 10^6 cells/ml
Description: as §1, §2

[10] = system: Alcaligenes faecalis IAM 1015; experiment: Antibacterial MIC (agar dilution); type: cell-based; conditions: IAM1015, Muller-Hinton agar, 37° C., 18 hours, 10^6 cells/ml
Description: as §1, §2

[11] = system: Salmonella typhymurium G-46; experiment: Antibacterial MIC (agar dilution); type: cell-based; conditions: G46, Muller-Hinton agar, 37° C., 18 hours, 10^6 cells/ml
Description: as §1, §2

[12] = system: Micrococcus luteus ATCC 9341; experiment: Antibacterial MIC (agar dilution); type: cell-based; conditions: ATCC9341, Muller-Hinton agar, 37° C., 18 hours, 10^6 cells/ml
Description: as §1, §2

[13] = system: Staphylococcus aureus (MRSA)70; experiment: Antibacterial MIC (agar dilution); type: cell-based; conditions: 18 h
Description: as §1, §2

[14] = system: Bacillus subtilis ATCC(rec^+); experiment: Antibacterial MIC (agar dilution); type: cell-based; conditions: Muller-Hinton agar, 37° C., 18 hours, 10^6 cells/ml
Description: as §1, §2

[15] = system: Staphylococcus aureus (MRSA)92-1192; experiment: Antibacterial MIC (agar dilution); type: cell-based; conditions: 18 h
Description: as §1, §2

[16] = system: Staphylococcus epidermidis ATCC 12228; experiment: Antibacterial MIC (agar dilution); type: cell-based; conditions: ATCC12228, Muller-Hinton agar, 37° C., 18 hours, 10^6 cells/ml
Description: as §1, §2

[17] = system: Bacillus subtilis ATCC(rec^-); experiment: Antibacterial MIC (agar dilution); type: cell-based; conditions: Muller-Hinton agar, 37° C., 18 hours, 10^6 cells/ml
Description: as §1, §2

[18] = system: Bacillus subtilis ATCC 6633; experiment: Antibacterial MIC (agar dilution); type: cell-based; conditions: ATCC6633, Muller-Hinton agar, 37° C., 18 hours, 10^6 cells/ml
Description: as §1, §2

[19] = system: murine leukemia P388 cells; experiment: Survival effect against murine leukemia P388 cells implanted intraperitoneally; type: in vivo, mouse (male CDF1); conditions: 0.25 mg/kg intraperitoneally, 1 day after i.p. implantation of 1×10^6 P388 cells, male CDF1 mice
Text: B. Survival effect against murine leukemia P388 cells implanted intraperitoneally:
The antitumor activity of the compound according to the present invention was judged by the survival effect against murine leukemia (p388 cells). The three of Male CDF1 mice (aged 6 weeks) were used as test animals for an administering group and 10 mice for an untreating control group. Murine leukemia P388 cells (1×10^6 cells) were implanted intraperitoneally in all the mice. Upon elapsed time of 1 day (the first day) after the implantation, the substance IT-62-B dissolved in a 3.5% solution of dimethyl sulfoxide in physiological saline was administered intraperitoneally to the mice of the administering group at a dose of 0.25 mg/kg so as to observe survival days of the mice. […] [formula]

Compound: COc1cccc2c1C(=O)c1c(O)c3c(c(O)c1C2=O)CC(O)(C(C)=O)CC3OC1CC2C(OC(CC(C)O)OC(C)C3OC(C(C)CO)C(=O)N23)C(C)O1 (stereo not drawn) [IT-62-B]
- IC50 [1]: 0.006 µg/mL (≈ 0.00779 µM)
- MIC (Bacillus cereus IFO 3001): 12.5 µg/mL (≈ 16.2 µM)
- MIC [2]: 50 µg/mL (≈ 65 µM)
- MIC [3]: 6.25 µg/mL (≈ 8.12 µM)
- MIC [4]: > 100 µg/mL
- MIC (Escherichia coli NIHJ): 100 µg/mL (≈ 130 µM)
- MIC [5]: > 100 µg/mL
- MIC [6]: 50 µg/mL (≈ 65 µM)
- MIC [7]: > 100 µg/mL
- MIC [8]: 1.56 µg/mL (≈ 2.03 µM)
- MIC [9]: > 100 µg/mL
- MIC [10]: 12.5 µg/mL (≈ 16.2 µM)
- MIC [11]: > 100 µg/mL
- MIC [12]: 3.13 µg/mL (≈ 4.07 µM)
- MIC [13]: 12.5 µg/mL (≈ 16.2 µM)
- MIC [14]: 6.25 µg/mL (≈ 8.12 µM)
- MIC [15]: 12.5 µg/mL (≈ 16.2 µM)
- MIC [16]: 25 µg/mL (≈ 32.5 µM)
- MIC [17]: 0.39 µg/mL (≈ 0.507 µM)
- MIC [18]: 3.13 µg/mL (≈ 4.07 µM)
- Percent increase in survival [19]: 119%
